Among the data in ChEMBL document CHEMBL1949648, “Synthesis and neurite growth evaluation of new analogues of honokiol, a neolignan with potent neurotrophic activity” (2012) are Activity values, retold here.

Experiment [1] has as its system N2a. Put plainly: Induction of neurite outgrowth in mouse Neuro2a cells at 1 uM after 48 hrs by morphometric analysis relative to control. It counts as functional.
In experiment [2] the test system is N2a. The experiment can be described thus: Induction of neurite outgrowth in mouse Neuro2a cells at 0.1 uM after 48 hrs by morphometric analysis relative to control. It counts as functional.

`C=CCc1ccc(O)c(-c2ccc(O)c(-c3ccc(C(=O)OCC)c(C)n3)c2)c1` displayed an Activity in the experiment with N2a [1] of 5.78%.

On to `C=CCc1ccc(OC)c(-c2ccc(OC)c(C(=O)c3cn(Cc4ccccc4)nn3)c2)c1`, for which, in the experiment with N2a [1], the Activity is given as 6.87%.

In the experiment with N2a [2], `C=CCc1ccc(OC)c(-c2ccc(O)c(-c3ccn(C)n3)c2)c1` returned an Activity of 5.89%.

`C=CCc1ccc(O)c(-c2ccc(O)c(CC=C)c2)c1` [HONOKIOL] registered an Activity in the experiment with N2a [1] of 41.03%.
